From patent US20220167645A1, “METHODS OF IMPROVING FISH FEED CONVERSION RATE AND SURVIVAL” (AQUINOVO LTD., priority 2019, published 2022)
Where “and” joins values, the source holds several entries; their conditions need not be identical. Identical values can stand only once. Numbered stars: 1 amine (or outer) side, 2 acyl side, 3 side chain; on linkers, the order of the positions; unused ones are H or OH. Square brackets hold non-standard residues; d marks the D form. Suc = O=C(CCC(=O)[*:2])[*:1]; NMeV = CN[C@H](C(=O)O)C(C)C; βAla = NCCC(=O)O

Assays:
Tilapia fish [1] = assay: Experiment #1: tilapia fed AN6-coated feed in two phases (growth, biomass, mortality, FCR); assay type: in vivo
Experimental: MeM (powder, manufactured by Bern Aqua), Nanolis P1, P2 (pellet sizes of 0.8-1 mm, 1-1.5 mm, respectively, manufactured by Ocialis) and Tilaphi 1, 2 & 3 (pellet sizes of 1-1.5 mm, 2 mm, 3-5.5 mm, respectively, manufactured by Ocialis) were used as basic regular feed. The basic feed was coated according to the following general procedure: 9 ml or 3 ml of Tris-HCl solution (50 mM, pH=8.8) were diluted to 60 ml with distilled H2O. For AN6-containing feed preparation, desired amounts of AN6 peptide (a TK antagonist having the sequence Succ-Asp-Ser-D-Trp—N(Me)Val-βAla-Leu-Met-NH2, SEQ ID NO. 6) were dissolved in the Tris-HCl solution. Then, each of the various solutions was mixed with 3 Kg of basic feed pellets using an electric mixer. The peptide-feed mixtures where then dried either in oven at 40° C. for 24 hours or in drying drum for few hours to form coated pellets. The total amount of each feed was 3 Kg.
Tilapia fish (n=3600) have been raised from age 10 to 106 days post-hatch (dph) in indoor tanks kept under artificial lightening (12 h light; 12 h dark), and then transferred to cages in ponds for 160 days (total 8-9 months). The fish were fed to apparent satiation 2-4 times a day, for about 90 days (10-106 dph, Phase 1), either with regular feed (Feed A, Group A, n=600 in 3 repeats) or with feed coated with AN6 peptide solution in a ratio of 10 mg AN6/Kg feed (10 ppm, Feed C, Group B, n=600 in 3 repeats). In the second phase, fish in group B were fed for 50 days (207-257 dph, Phase 2) with feed coated with AN6 peptide solution, in a ratio of 30 mg AN6/Kg feed (30 ppm, Feed D, Group B). Between days 107 and 206 the fish received control feed (feed A).
During the experiment period, the average fish weight was measured, and the daily growth rate was calculated by dividing the average weight gained in each measuring period by the number of days since the last measurement. […] This effect was also evident in the daily growth rate (FIG. 1, experiment #1). The relatively low growth rate measured in the initial phase of this experiment probably stemmed from high stocking density in tanks system in the initial period (Phase 1, Table 2, until day 106 post-hatch). This growth restriction was fully compensated in the larger cages in ponds (178 dph) where stocking density was much lower (from 106 dph, <10 Kg fish/m3).
During the experiments described above, dead fish were removed from tanks before each feeding, and then counted and weighed. Dead fish were not replaced after the beginning of the experiment. In the cage systems, in which dead fish are undetectable, actual mortality was estimated by the difference between initial and final count.
During the experiment described in example 2 (experiment #1), the fish were exposed to high stocking densities in indoor tanks (13-130 kg/m^3, 83-106 dph, Table 2, FIG. 7). High stocking density is known as a major fish stressor resulting, inter alia, in chronic increase in Cortisol levels, reduced growth, changes in behavior and inhibition of immune performance. Although mortality in these tanks was not high, a significant increase in mortality was observed following fish transfer to the pond (FIG. 7, 17.5%±2.4 mortality, x±SE).
In order to determine the efficiency of feed conversion into fish substance in experiments (#1, #2, #3), FCR values which reflect the amount of feed needed to grow a kilogram fish, were calculated for each period and for the entire fish growth period. In order to determine the amount of consumed feed, the amount of feed provided was measured daily for each tank and the leftovers were collected, weighted and subtracted from the total amount of feed. Dead fish were removed every day before each feeding and then counted and weighed for accurate calculation of feed intake and FCR. […]

Tilapia fish [2] = assay: Experiment #2: tilapia fed AN6-coated feed 60-150 dph (growth, biomass, FCR, intestine weight); assay type: in vivo; settings: 5 mgAN6/Kg feed from 60 dph for 150 days
[3] = 10 mg AN6/Kg feed 10-106 dph, first 200 days of experiment, vs control

Substance: Succ-Asp-Ser- D-Trp -N(Me)Val-βAla-Leu-Met-NH2 (Suc-DS[dW][NMeV][βAla]LM-NH2; SMILES CSCC[C@H](NC(=O)[C@H](CC(C)C)NC(=O)CCNC(=O)[C@H](C(C)C)N(C)C(=O)[C@@H](Cc1c[nH]c2ccccc12)NC(=O)[C@H](CO)NC(=O)[C@H](CC(=O)O)NC(=O)CCC(=O)O)C(N)=O) [AN6]
- daily growth rate (Tilapia fish [1]; [3]): no differences
- fish average weight (Tilapia fish [1]; [3]): no differences
- FCR and growth performance (Tilapia fish [1]; 10 and 30 mg AN6/Kg feed (experiment #1)): both improved FCR and growth performance
- number of fish in the upper 6.5th decile (Tilapia fish [1]; AN6 treatment group (control 6%)): 12%
- number of fish in the lower 2th decile (Tilapia fish [1]; AN6 treatment group (control 9%)): 7%
- mortality following fish transfer to the pond (x±SE) (Tilapia fish [1]; after high stocking density in tanks, control 17.5%±2.4, FIG. 7): 10.5%±1.8
- increased total biomass (Tilapia fish [1]; experiment #1, FIG. 3A, vs control): +18%
- reduction of fish mortality as compared to the control groups (Tilapia fish [1]; in the pond, FIG. 7): 8.5%
- weight gained normalized according to the initial body weight, difference compared to the control group (Tilapia fish [1]; second phase of the experiment (FIG. 2A)): 6% and 9%
- FCR (Tilapia fish [2]): improved FCR significantly
- growth (Tilapia fish [2]): not sufficient to improved growth
